Data on five compounds can be found in patent US20250276942A1, “UREASE INHIBITOR FORMULATION FOR USE IN UREA GRANULATION PROCESS” (BASF SE, priority 2021, published 2025).

One data set in a line: Flashpoint of materials. In kind it is physicochemical. As to the method:
In a preferred embodiment A2 of the first aspect, the solvent (B) has a flashpoint (determined according to ISO 2719:2016) of more than 130° C., preferably more than 135° C., and in particular more than 140° C.

Data set [1] in a line: NxPT recovery on closed storage of urea treated in the melt with urease inhibitor formulations in different solvents (Example 2). The note with it: 550 ppm NxPT added to urea melt; closed storage at 30° C. and 40° C.; 2 and 6 months; HPLC DIN_EN_16651. In kind it is physicochemical. As to the method:
900 g urea+20 mL water were added to a metal pan and heated to 135° C.+1−5° C. under continuous stirring using an overhead stirrer. When all urea was melted, the respective amount of urease inhibitor formulation was added to the urea melt to achieve an NxPT (i.e. NBPT and NPPT) concentration of 550 ppm in urea. After 1 minute of mixing, the molten urea was poured onto an aluminum tray and let cool down at room temperature for 30 min. Afterwards, the urea was broken up in pieces of 1-6 mm and stored in closed polyethylene bottles at 30° C. and 40° C. After 2 and 6 months samples were taken and analyzed for active ingredient concentration. […] The resulting NxPT concentrations from both measurements were averaged.

For data set [2] the following is noted: granulated urea, 0.055 wt.-% NBPT+NPPT; closed storage 20° C., 30° C., 40° C., up to 12 months; compared to samples containing PEI.
Protocol: In a test plant, urea was granulated in a fluidized bed granulator having a cylindrical fluidized bed of diameter 40 cm at a temperature of about 108° C. […] The fluidization air flowed at a superficial flow rate of about 2 m/s into the fluidized bed. An overflow was mounted 10 cm above the baseplate at the side wall of the bed. A defined amount (about 30 kg) of urea particles or urea granules having a narrow size distribution was then introduced into the granulator column as seeds for the granulation. The bed with the seeds (about 50 cm deep) was fluidized with hot air at a temperature of about 100° C., and the addition of 96 to 97% by weight urea solution at a temperature of about 135° C. was commenced as soon as the bed had reached the temperature of about 108° C. that was envisaged for the run. From a reservoir tank, the urea solution having a water content of 3-4% by weight was then introduced into the fluidized bed granulator at a rate of 300 kg/h via a spray nozzle that was operated at a temperature of about 140° C. with air, supplied at a rate of 240 kg/h. […]
Samples of the resulting urea granules were stored in closed polyethylene bottles at 20° C., 30° C. and 40° C. Samples were taken after 0, 1, 2, 3, 4, 6, and 12 months and analyzed for active ingredient concentration. From each sample 2×15 g was dissolved in 100 mL water and analyzed using HPLC method DIN_EN_16651. […]
The nature of data set [3]: NxPT recovery on closed storage at 30° C. of urea coated with amine-containing formulations (Example 5). In kind it is physicochemical. As to the method:
3 kg of urea fertilizer granules were added to an ERWEKA mixer (dimensions mix drum: 50 cm diameter, 20 cm high). The mixer was turned on (27 RPM) and the respective amount of urease inhibitor formulation (formulations of NBPT and NPPT in DEG with additional amine were prepared as shown in Table 3 below) was sprayed onto the urea using a syringe to achieve a total NxPT concentration of 550 ppm (137.5 ppm NPPT and 412.5 ppm NBPT) on urea. The fertilizer/urease inhibitor mixture was mixed for 5 minutes. Afterwards, the treated urea was stored in closed polyethylene bottles at 30° C. Samples were taken after 1, 2, 3 and 6 months and analyzed for active ingredient concentration. […] The resulting NxPT concentrations from both measurements were averaged.

Consider `CC(O)C(=O)N(C)C` (stereo not shown) [Agnique AMD 3L, N,N-Dimethyl lactamide], for which the Flashpoint in the data set “Flashpoint of materials” was found to be 103 °C.
With `OCCOCCO` [DEG, Diethylene glycol], in data set [1], the “stabilizing properties on NxPT during storage of the treated urea, among the tested glycols” value is given as “best stabilizing properties”. Also, the Flashpoint in “Flashpoint of materials” amounted to 142 °C.
Regarding `CC(O)CO` (stereo not shown) [PG, Propylene glycol], the Flashpoint in “Flashpoint of materials” came out at 99 °C.
With `C[S+](C)[O-]` [DMSO, Dimehtyl sulfoxide], the “ranking of the stabilizing properties of the tested solvents” value in data set [1] is recorded as “DEG>DPG>PG>N,N-Agnique AMD 3L>DMSO”. The Flashpoint in “Flashpoint of materials” came out at 95 °C.
Turning to `CC(O)CN(CCO)CCO` (stereo not shown) [DEIPA, Diethanol isopropanol amine], the “storage stability in urea” value in data set [2] is on record as “higher storage stability”. Moreover, the “performance in urease inhibitor formulations applied as coating to urea” value in data set [3] (550 ppm NxPT sprayed onto urea granules, closed storage 30° C., 1, 2, 3 and 6 months) was “same performance”. Besides, the stabilizing effect entry in data set [3] (amine in DEG formulation of NBPT and NPPT on urea) is on record as “stabilizing effect”. In “Flashpoint of materials”, the Flashpoint was 191 °C.
